The test system of one assay is Ba/F3 parental. As to the kind of experiment: Ba/F3 cell viability (MTS), parental cells. The format is cell-based, murine. Conditions: Mus musculus, BaF3, Table 3, 72 hours.
The next assay addresses H (Homo sapiens, UniProt P00533, cells depend on it, form not given). As to the kind of experiment: Ba/F3 cell viability (MTS), H. In kind it is cell-based. The note with it: Table 5.
For the next assay, the target named is VC (Homo sapiens, UniProt P04626, DELINS776-776VC, cells depend on it). Nature of the assay: Ba/F3 cell viability (MTS), VC. The note with it: Table 5. In kind it is cell-based.
VC, sequence (P04626 with tags, fused parts or gaps DELINS776-776VC): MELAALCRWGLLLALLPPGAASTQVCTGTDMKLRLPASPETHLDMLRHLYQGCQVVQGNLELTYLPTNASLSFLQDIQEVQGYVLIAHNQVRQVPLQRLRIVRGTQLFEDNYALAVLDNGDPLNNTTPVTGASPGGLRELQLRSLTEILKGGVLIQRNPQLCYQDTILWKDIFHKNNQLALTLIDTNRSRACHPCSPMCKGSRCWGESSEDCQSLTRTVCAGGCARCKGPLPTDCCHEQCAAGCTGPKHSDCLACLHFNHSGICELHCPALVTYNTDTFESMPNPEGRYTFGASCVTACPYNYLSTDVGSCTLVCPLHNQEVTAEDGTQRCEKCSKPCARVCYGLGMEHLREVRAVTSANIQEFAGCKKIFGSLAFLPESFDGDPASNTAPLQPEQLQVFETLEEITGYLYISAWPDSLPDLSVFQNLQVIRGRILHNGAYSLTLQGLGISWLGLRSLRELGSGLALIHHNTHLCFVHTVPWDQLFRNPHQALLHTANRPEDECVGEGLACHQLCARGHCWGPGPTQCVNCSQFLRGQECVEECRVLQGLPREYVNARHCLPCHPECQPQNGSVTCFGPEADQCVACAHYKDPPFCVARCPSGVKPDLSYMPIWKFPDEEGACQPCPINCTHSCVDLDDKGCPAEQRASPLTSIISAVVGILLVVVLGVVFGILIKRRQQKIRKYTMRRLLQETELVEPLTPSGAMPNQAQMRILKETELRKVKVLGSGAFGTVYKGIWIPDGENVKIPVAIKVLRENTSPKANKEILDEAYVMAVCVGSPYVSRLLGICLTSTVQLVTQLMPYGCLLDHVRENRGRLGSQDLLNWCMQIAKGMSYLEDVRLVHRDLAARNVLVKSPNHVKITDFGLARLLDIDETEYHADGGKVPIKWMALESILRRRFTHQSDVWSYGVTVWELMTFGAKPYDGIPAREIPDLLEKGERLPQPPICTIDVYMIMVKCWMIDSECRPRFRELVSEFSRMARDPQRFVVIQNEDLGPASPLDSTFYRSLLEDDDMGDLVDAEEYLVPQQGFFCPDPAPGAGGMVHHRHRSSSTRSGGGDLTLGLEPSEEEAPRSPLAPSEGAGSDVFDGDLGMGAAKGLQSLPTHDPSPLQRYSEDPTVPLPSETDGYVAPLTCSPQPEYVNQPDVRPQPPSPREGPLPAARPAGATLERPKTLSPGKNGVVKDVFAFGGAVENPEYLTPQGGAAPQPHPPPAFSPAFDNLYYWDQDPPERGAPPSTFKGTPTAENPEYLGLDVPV
In the next assay the target is WLV (Homo sapiens, UniProt P04626, DELINS774-774WLV, cells depend on it). Nature of the assay: Ba/F3 cell viability (MTS), WLV. In kind it is cell-based. Conditions: Table 5.
Another assay addresses exon19 (Homo sapiens, UniProt P00533, cells depend on it, form not given). As to the kind of experiment: Ba/F3 cell viability (MTS), exon19. The format is cell-based. Conditions: Table 5.
The target of another assay is T1, EGFR SVD (Homo sapiens, UniProt P00533, INS770SVD).
T1 construct: expressed in transfected cells; host or cells: Ba/F3 cells
T1 sequence (P00533 with tags, fused parts or gaps INS770SVD): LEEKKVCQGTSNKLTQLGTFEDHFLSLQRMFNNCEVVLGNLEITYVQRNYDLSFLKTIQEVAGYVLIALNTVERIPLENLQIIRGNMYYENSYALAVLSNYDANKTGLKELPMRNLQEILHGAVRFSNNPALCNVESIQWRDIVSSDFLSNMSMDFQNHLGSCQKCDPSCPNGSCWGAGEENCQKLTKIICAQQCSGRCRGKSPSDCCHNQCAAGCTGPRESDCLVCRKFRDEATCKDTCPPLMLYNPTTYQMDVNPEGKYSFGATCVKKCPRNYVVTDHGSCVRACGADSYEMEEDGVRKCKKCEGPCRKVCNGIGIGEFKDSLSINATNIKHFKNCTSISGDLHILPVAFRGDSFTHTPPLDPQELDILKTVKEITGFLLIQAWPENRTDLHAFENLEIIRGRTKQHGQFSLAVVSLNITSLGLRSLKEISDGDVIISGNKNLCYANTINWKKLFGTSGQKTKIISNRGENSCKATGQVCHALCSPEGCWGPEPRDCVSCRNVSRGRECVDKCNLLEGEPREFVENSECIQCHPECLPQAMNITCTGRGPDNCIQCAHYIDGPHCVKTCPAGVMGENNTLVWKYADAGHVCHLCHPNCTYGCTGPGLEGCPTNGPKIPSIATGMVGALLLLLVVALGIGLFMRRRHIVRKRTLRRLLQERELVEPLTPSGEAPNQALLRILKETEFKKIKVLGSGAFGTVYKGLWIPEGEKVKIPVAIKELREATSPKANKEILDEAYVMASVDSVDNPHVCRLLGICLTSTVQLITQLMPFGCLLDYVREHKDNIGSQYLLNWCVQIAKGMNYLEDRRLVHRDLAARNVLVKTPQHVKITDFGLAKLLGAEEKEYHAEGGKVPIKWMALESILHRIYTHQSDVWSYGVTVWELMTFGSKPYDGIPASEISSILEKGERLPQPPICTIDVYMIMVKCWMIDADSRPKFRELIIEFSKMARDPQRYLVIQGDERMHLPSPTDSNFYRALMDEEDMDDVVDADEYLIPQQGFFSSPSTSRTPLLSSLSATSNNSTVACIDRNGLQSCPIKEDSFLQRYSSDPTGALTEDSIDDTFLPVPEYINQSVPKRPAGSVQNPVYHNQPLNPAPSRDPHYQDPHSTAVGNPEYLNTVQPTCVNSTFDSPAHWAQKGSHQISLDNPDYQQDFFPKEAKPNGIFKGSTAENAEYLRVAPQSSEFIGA
As to the kind of experiment: Ba/F3 cell viability (MTS), EGFR SVD. In kind it is cell-based. The note with it: Ba/F3 cells, 72 hours.

In the next assay the target is T2, EGFR ASV (Homo sapiens, UniProt P00533, INS769ASV).
T2 construct: expressed in transfected cells; host or cells: Ba/F3 cells
Nature of the assay: Ba/F3 cell viability (MTS), EGFR ASV. In kind it is cell-based. The note with it: Ba/F3 cells, 72 hours.

The source of these data is patent publication US20230137932A1, “CYANO-PYRIMIDINE INHIBITORS OF EGFR/HER2” (Dana-Farber Cancer Institute, Inc., priority 2020, published 2023).

The structures appear in SMILES notation. pIC50: −log10 of the molar value. Like-named read-outs stand apart in the source and are kept apart here.

exon19, sequence (P00533 with tags, fused parts or gaps DEL746-750): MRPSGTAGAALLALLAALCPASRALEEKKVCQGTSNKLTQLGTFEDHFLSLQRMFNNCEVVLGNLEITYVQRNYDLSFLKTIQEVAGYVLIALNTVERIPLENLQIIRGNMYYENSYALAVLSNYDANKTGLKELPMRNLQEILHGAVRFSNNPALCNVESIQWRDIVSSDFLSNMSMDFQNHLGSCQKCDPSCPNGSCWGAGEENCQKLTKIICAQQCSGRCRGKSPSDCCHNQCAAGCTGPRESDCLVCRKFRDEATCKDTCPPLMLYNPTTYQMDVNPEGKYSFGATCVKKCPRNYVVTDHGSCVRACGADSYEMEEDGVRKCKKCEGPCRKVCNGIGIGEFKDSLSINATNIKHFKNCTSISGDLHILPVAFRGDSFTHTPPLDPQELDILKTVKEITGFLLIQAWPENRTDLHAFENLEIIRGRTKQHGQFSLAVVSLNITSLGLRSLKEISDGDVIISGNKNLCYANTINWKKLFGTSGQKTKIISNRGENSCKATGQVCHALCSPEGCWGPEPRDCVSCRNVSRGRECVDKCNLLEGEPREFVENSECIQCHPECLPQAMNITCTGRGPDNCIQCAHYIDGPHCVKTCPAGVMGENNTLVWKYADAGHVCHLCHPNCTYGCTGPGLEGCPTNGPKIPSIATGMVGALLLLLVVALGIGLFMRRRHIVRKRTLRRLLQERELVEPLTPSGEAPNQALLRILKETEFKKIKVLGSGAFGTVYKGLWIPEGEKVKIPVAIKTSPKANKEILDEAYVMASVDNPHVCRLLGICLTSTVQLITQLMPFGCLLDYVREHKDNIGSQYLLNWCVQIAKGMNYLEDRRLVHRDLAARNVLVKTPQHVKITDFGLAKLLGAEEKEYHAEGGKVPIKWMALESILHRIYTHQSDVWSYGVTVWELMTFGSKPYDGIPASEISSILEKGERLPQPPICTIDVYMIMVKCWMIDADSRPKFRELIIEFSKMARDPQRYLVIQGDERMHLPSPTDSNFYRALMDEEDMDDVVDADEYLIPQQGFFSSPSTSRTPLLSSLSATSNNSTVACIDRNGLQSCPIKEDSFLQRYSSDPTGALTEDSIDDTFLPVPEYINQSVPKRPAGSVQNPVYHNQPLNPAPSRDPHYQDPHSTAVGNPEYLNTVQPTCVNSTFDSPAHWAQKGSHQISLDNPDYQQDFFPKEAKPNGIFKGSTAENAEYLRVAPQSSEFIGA
H, sequence (P00533 with tags, fused parts or gaps DUP773-773): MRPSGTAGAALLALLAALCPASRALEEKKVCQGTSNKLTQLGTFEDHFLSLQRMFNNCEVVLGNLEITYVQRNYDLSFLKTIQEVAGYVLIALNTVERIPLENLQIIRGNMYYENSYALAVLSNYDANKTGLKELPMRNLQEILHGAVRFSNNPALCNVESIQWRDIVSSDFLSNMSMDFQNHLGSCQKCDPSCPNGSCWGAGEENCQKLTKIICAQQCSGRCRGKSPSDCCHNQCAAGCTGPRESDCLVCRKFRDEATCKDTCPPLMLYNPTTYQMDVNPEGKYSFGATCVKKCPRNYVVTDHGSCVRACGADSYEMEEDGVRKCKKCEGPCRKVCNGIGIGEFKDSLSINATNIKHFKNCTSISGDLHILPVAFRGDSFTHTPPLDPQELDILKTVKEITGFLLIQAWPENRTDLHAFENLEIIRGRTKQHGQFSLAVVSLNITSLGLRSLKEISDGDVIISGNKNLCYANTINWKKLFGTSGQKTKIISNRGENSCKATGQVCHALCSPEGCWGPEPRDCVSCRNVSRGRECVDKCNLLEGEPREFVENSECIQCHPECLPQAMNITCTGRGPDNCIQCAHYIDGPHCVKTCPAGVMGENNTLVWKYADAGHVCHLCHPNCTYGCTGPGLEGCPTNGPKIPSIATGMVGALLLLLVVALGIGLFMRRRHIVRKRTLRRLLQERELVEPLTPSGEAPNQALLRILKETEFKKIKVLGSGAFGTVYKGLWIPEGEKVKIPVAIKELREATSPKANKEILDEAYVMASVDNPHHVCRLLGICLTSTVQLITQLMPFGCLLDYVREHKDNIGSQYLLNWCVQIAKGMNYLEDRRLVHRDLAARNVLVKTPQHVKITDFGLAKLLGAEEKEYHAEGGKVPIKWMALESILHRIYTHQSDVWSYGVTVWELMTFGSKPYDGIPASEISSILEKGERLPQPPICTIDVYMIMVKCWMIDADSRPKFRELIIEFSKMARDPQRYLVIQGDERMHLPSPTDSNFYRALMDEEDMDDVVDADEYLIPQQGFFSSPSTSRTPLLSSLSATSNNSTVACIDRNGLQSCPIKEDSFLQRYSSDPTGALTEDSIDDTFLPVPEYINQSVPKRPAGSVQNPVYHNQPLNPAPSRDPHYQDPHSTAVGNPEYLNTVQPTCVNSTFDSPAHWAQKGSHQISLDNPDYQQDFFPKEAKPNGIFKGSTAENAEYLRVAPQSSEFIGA
Protocol for Ba/F3 parental: (§1) The IC50 values of the compounds provided herein were measured against kinases in Ba/F3 cells.
(§2) For assays with Ba/F3 cells, 3000 cells were seeded for per well in 96-well plates and were exposed to indicated compounds with a concentration of 3.3 to 10 μM for 72 hours.
Protocol for EGFR ASV: as §1, §2
Protocol for EGFR SVD: as §1, §2
Protocol for H: as §1, §2
Protocol for VC: as §1, §2
Protocol for WLV: as §1, §2
Protocol for exon19: as §1, §2

On to `C=CC(=O)Nc1cc(Nc2ncc(C#N)c(NC34CC(C(F)F)(C3)C4)n2)c(OC)cc1N(C)CCN(C)C` [Compound 015, N-(5-(5-cyano-4-(3-(difluoromethyl)bicycle[1.1.1]pentan-1-ylamino)-pyrimidin-2-ylamino)-2-((2-(dimethylamino)ethyl)(methyl)amino)-4-methoxyphenyl)-acrylamide], for which the pIC50 in the assay with Ba/F3 parental was 5.20.

Turning to `C=CC(=O)Nc1cc(Nc2ncc(C#N)c(Nc3ccc(Oc4ccn5ccnc5c4)c(C)c3)n2)c(OC)cc1N(C)C` [Compound 029], in the assay with Ba/F3 parental, the pIC50 is 5.06.

`C=CC(=O)Nc1cc(Nc2nccc(NC34CC(C3)C4)n2)c(OC)cc1N(C)CCN(C)C` [Compound 017, N-(5-((4-(bicyclo[1.1.1]pentan-1-ylamino)pyrimidin-2-yl)amino)-2-((2-(dimethylamino)ethyl)(methyl)amino)-4-methoxyphenyl)acrylamide]: the pIC50 in the assay on Ba/F3 parental is 5.64.

A word on the GI50: it is the concentration giving 50% growth inhibition. A low value points to greater sensitivity of the cells. As for `C=CC(=O)Nc1cc(Nc2ncc(C#N)c(Nc3ccc(Oc4ccn5ccnc5c4)c(C)c3)n2)c(OC)cc1N(C)CCN(C)C` [Compound 022], the 50% growth inhibitory concentration (GI50) on H is 0.0285 µM; at VC it was 0.00956 µM; at WLV it was 0.0613 µM; on exon19, 0.000948 µM.

Turning to `C=CC(=O)Nc1cc(Nc2ncc(OC)c(NC34CC(C3)C4)n2)c(OC)cc1N(C)CCN(C)C` [Compound 018, N-(5-((4-(bicyclo[1.1.1]pentan-1-ylamino)-5-methoxypyrimidin-2-yl)amino)-2-((2-(dimethylamino)ethyl)(methyl)amino)-4-methoxyphenyl)acrylamide], the pIC50 in the assay with Ba/F3 parental was 5.04.

`C=CC(=O)Nc1cc(Nc2ncc(C#N)c(NC34CC(C3)C4)n2)c(OC)cc1N(C)CCN(C)C` [Compound 013, N-(5-((4-(bicyclo[1.1.1]pentan-1-ylamino)-5-cyanopyrimidin-2-yl)amino)-2-((2-(dimethylamino)ethyl)(methyl)amino)-4-methoxyphenyl)acrylamide]: the pIC50 with Ba/F3 parental is 5.34; at EGFR SVD (Table 2, read-out: Ba/F3 IC50 SVD), 8.21; at EGFR SVD (Table 4, read-out: EGFR Ba/F3 SVD), 7.35; on EGFR ASV (Table 2, read-out: Ba/F3 IC50 ASV), 8.29; at EGFR ASV (Table 4, read-out: EGFR Ba/F3 ASV), 7.71.

Regarding `C=CC(=O)Nc1cc(Nc2ncc(C3CC3)c(NC34CC(C3)C4)n2)c(OC)cc1N(C)CCN(C)C` [Compound 019, N-(5-((4-(bicyclo[1.1.1]pentan-1-ylamino)-5-cyclopropylpyrimidin-2-yl)amino)-2-((2-(dimethylamino)ethyl)(methyl)amino)-4-methoxyphenyl)acrylamide], in the assay with Ba/F3 parental, the pIC50 was 5.37.

For the compound `C=CC(=O)Nc1cc(Nc2ncc(C#N)c(NC3C(C)C4CCC3C4(C)C)n2)c(OC)cc1N(C)CCN(C)C` (stereo not shown) [Compound 016, N-(5-((5-cyano-4-((3,7,7-trimethylbicyclo[2.2.1]heptan-2-yl)amino)-pyrimidin-2-yl)amino)-2-((2-(dimethylamino)ethyl)(methyl)amino)-4-methoxyphenyl)-acrylamide], the pIC50 with Ba/F3 parental is 5.36.

Regarding `C=CC(=O)Nc1cc(Nc2ncc(C#N)c(Nc3ccc(Oc4ccn5ccnc5c4)c(C)c3)n2)c(OC)cc1N1CC(N(C)C)C1` [Compound 030], the pIC50 with Ba/F3 parental is 5.00.

Regarding `C=CC(=O)Nc1cc(Nc2nc(Nc3ccc(Oc4ccn5ccnc5c4)c(C)c3)ncc2C#N)c(OC)cc1N(C)CCN(C)C` [Compound 027], the GI50 at H was 0.445 µM; at VC, 0.317 µM; at WLV, 0.461 µM; at exon19 it was 0.0447 µM.

As for `CCC(=O)Nc1cc(Nc2ncc(C#N)c(NC34CC(C3)C4)n2)c(OC)cc1N(C)CCN(C)C` [Compound 028, N-(5-((4-(bicyclo[1.1.1]pentan-1-ylamino)-5-cyanopyrimidin-2-yl)amino)-2-((2-(dimethylamino)ethyl)(methyl)amino)-4-methoxyphenyl)propionamide], the pIC50 in the assay with Ba/F3 parental is 4.98.

As for `C=CC(=O)Nc1cc(Nc2ncc(C#N)c(Nc3cccc(C)c3)n2)c(OC)cc1N(C)CCN(C)C` [Compound 014, N-(5-((5-cyano-4-(m-tolylamino)pyrimidin-2-yl)amino)-2-((2-(dimethyl-amino)ethyl)(methyl)amino)-4-methoxyphenyl)acrylamide], the pIC50 in the assay on Ba/F3 parental was 5.13.

For `C=CC(=O)Nc1cc(Nc2ncc(C#N)c(N3CCC3)n2)c(OC)cc1N(C)CCN(C)C` [Compound 021, N-(5-(4-(azetidin-1-yl)-5-cyanopyrimidin-2-ylamino)-2-((2-(dimethyl-amino)ethyl)(methyl)amino)-4-methoxyphenyl)acrylamide], the pIC50 with Ba/F3 parental is 5.22.

`C=CC(=O)Nc1cc(Nc2ncc(C#N)c(NC3CCC3)n2)c(OC)cc1N(C)CCN(C)C` [Compound 020]: in the assay with Ba/F3 parental, the pIC50 was 5.23.

Consider `C=CC(=O)Nc1cc(Nc2ncc(C#N)c(NC34CC(CN(C)C)(C3)C4)n2)c(OC)cc1N1CCOCC1` [Compound 031], for which the pIC50 in the assay with Ba/F3 parental was 5.09.
